# Reference: article PMC3689833, “Neurochemical Changes in the Mouse Hippocampus Underlying the Antidepressant Effect of Genetic Deletion of P2X7 Receptors” (PLoS ONE, 2013)
# Key:
# [1] = system: BDNF level in hippocampal slices; assay: BDNF protein assay (ELISA), in vitro study in hippocampal slices; assay type: cell-based, mouse; settings: BBG 100 nM
# Description: The P2rx7 wild type and knockout mice were anesthetized under light CO2 inhalation and decapitated. The hippocampus was dissected in ice-cold Krebs solution saturated with 95% O2 and 5% CO2, sectioned (400 µm thick slices) using a McIlwain tissue chopper and incubated in 2 ml of modified Krebs solution in the presence of 1 ml Hibernate medium, ascorbic acid (300 µM) and Na2EDTA (30 µM) for 60 min. The medium was bubbled continuously with 95% O2 and 5% CO2 and maintained at 37°C. The P2rx7 agonist, BzATP, was added to the incubation solution for 30 min, whereas BBG was applied 15 min before BzATP application. RO-256981, 6-cyano-7-nitroquinoxaline-2,3-dione (CNQX) and 3-Chloro-4-fluoro-N-[4[[2(phenylcarbonyl)hydrazino]carbonyl]benzyl] benzenesulfonamide (TCN-201) were applied for 15 min, while MCPG was administered for 30 min. The group I metabotropic glutamate receptor agonist, dihydroxyphenylglycine (DHPG), was administered for 10 min. The DHPG, MCPG, and RO-256981 dosages were chosen based on previous studies, [47], [48]. In the experiments with BzATP, Mg^2+ was omitted from the incubation solution. The hippocampal slices were collected, frozen on dry ice and stored at −70°C until further investigation. Each experimental group contained 3–4 mice.
# At the time of analysis, the samples were removed from the freezer and weighed. The BDNF extraction procedure was performed in accordance with the methods of a previous study. For the BDNF assays, 2 ml lysis buffer (100 mM PIPES, pH 7, 500 mM NaCl, 0.2% Triton X-100, 0.1% NaN3, 2% BSA, 2 mM EDTA, 200 µM PMSF, 10 µg/mL aprotinin, 1 µg/mL leupeptin, and 0.5 mM sodium vanadate) was added to each sample, and the hippocampus was sonicated at power level 2 using pulses at 1 sec intervals for 10–15 sec. Subsequently, the samples were centrifuged at 16,000 × g for 30 min at 4°C. 100 µl aliquots of the resulting supernatants were removed and diluted with 400 µl of DPBS buffer (137 mM NaCl, 2.68 mM KCl, 1.47 mM KH2PO4, 8.1 mM Na2HPO4 (pH 7.35), 0.9 mM CaCl2·H2O, and 0.5 mM MgCl2·H2O). The supernatants were collected and stored at −70?C until further analysis. For the total free BDNF measurement, the samples were acid treated with 1 µl of 1 N HCl for each 50 µl of diluted samples to decrease the pH to 2.5, followed by incubation at room temperature for 15 min. The samples were neutralized with 1 µl of 1 N NaOH for each 50 µl of diluted samples. The levels of BDNF (both precursor and mature forms) expression were evaluated using an enzyme-linked immunosorbent assay (ELISA) kit and a BDNF Emax ImmunoAssay System (Promega Corporation, Madison, WI, USA), which is specific for mouse BDNF protein, according to the manufacturer’s instructions. The BDNF levels were calculated by plotting the optical density (OD) of each sample against the standard curve. A seven-point standard curve using two-fold serial dilutions in Reagent Diluent (according the manufacturer’s instructions) and a high standard of 500 pg/ml were used for the determination of BDNF levels. The assay detection limits were <15 pg/ml. Absorbance was measured at 450 nm using a Perkin-Elmer Victor 3V 1420 Multilabel Counter.
# [2] = system: P2rx7+/+ mice; assay: Automated tail suspension test (TST), LPS-induced depressive behavior; assay type: in vivo, mouse; settings: LPS 1 mg/kg i.p. 24 h before, antagonist 50 mg/kg i.p. 30 min before test
# Description: All experiments and treatments were performed during the light phase (7.00 AM–7.00 PM). The TST was conducted using an automated tail suspension device (BIO-TST2, Bioseb, France) in accordance with a previously described method. The device consisted of a single tail suspension module with three chambers, connected to a personal computer that recorded the activity of the animals during the test sessions. Three mice were individually suspended by the tail onto the hooks of the device using adhesive tape (distance from tip of tail was 1–2 cm). The measurements were automatically recorded within 5–10 seconds after placing the last animal into the chamber, and each measurement lasted 6 min. […] The threshold level was set at 6. To examine endotoxin-induced depressive behavior, the animals were subjected to bacterial lipopolysaccharide injection (LPS, serotype 055:B5, Sigma, St. Louis, […], USA, 1 mg/kg i.p.) at 24 h before a single 6-min test period. Brilliant blue G (BBG, 50 mg/kg i.p.) or an equal volume of saline was injected at 30 min before the test period. The time of immobility was expressed in sec. The P2rx7+/+ and P2rx7−/− mice were subjected to alternation testing. […] The data of these animals were excluded from the calculations during the post hoc analysis.
# [3] = system: P2rx7+/+ and P2rx7−/− mice; assay: Sucrose preference test (SPT), LPS-induced anhedonia; assay type: in vivo, mouse; settings: P2rx7+/+ mice, subacute 4-day 50 mg/kg i.p., LPS 0.2 mg/kg i.p.
# Description: The experiments were performed using the two-bottle sucrose preference paradigm. The decreased preference for sucrose vs. water in this test has been proposed to reflect impaired sensitivity towards reward and to model anhedonia. Mice were offered a choice of 2% sucrose solution or water during 12-hour nocturnal periods (starting at 19∶00). The bottles were weighed before and after each test session to monitor sucrose and water consumption. The relative position of the sucrose and water bottles were swapped every night to avoid place preferences. The baseline sucrose intake was measured under a habituation period of 3–4 days before administering the treatments, and the mean volume ingested over the last 3 training sessions was used as a baseline value. The sucrose consumption was measured for 4 consecutive nights after LPS (0.2 mg/kg i.p.) or saline administration and expressed as g/100 g body weight or as a percentage of the baseline (%).
compound,measurement,setting,value
"CCOc1ccc(Nc2ccc(/C(=C3C=C/C(=[N+](/CC)Cc4cccc(S(=O)(=O)[O-])c4)C=C/3C)c3ccc(N(CC)Cc4cccc(S(=O)(=O)O)c4)cc3C)cc2)cc1 [BBG, Brilliant blue G]",BDNF level in hippocampal slices in the presence of BzATP,"[1]; P2rx7+/+ slices, + BzATP 100 µM, Mg2+-free, RO-256981 3 µM, MCPG 200 µM, DHPG 100 µM",77.87 ± 4.24 pg/mL
same,BDNF level in hippocampal slices,[1]; P2rx7+/+ slices,118.22 ± 1.59 pg/mL
same,increase of basal BDNF level,[1]; P2rx7+/+ slices,656%
same,BDNF level in hippocampal slices,[1]; P2rx7−/− slices,60.31 ± 0.31 pg/mL
same,increase of basal BDNF level,[1]; P2rx7−/− slices,272.7%
same,LPS-induced depressive behavior in TST (immobility),[2],significantly attenuated
same,sucrose consumption one day after LPS injection,[3],did not change
same,sucrose consumption over subsequent days after LPS,[3],significantly increased
